Literature values, collected in US7439254B2, “Compounds, compositions, and methods” (Cytokinetics, Inc., priority 2003, dated 2008).

Test system: A549 cells
Details: data provided by National Cancer Institute, Developmental Therapeutic Program

SMILES | GI50 [nM]
CC(=O)O[C@H]1C(=O)[C@@]2(C)[C@H]([C@H](OC(=O)c3ccccc3)[C@]3(O)C[C@H](OC(=O)[C@H](O)[C@@H](NC(=O)c4ccccc4)c4ccccc4)C(C)=C1C3(C)C)[C@]1(OC(C)=O)CO[C@@H]1C[C@@H]2O [paclitaxel] | 4
O=c1[nH]cc(F)c(=O)[nH]1 [5-fluorouracil] | 1000
COc1cccc2c1C(=O)c1c(O)c3c(c(O)c1C2=O)C[C@@](O)(C(=O)CO)C[C@@H]3O[C@H]1C[C@H](N)[C@H](O)[C@H](C)O1 [doxorubicin] | 63
NC(=O)NO [hydroxyurea] | 500000
